Test results from US10039846B2, “Compositions targeting bradykinin receptor B1 for medical imaging of cancer and other disorders” (BRITISH COLUMBIA CANCER AGENCY BRANCH, priority 2012, dated 2018).
pKi: −log10 of the molar value. Values joined by “and” are separate entries in the source; they are usually repeats but may differ in a detail not shown here. Equal values may be shown once. Read-outs that look alike come from different tables or passages of the source. Where a SMILES comes first, the peptide text is derived from it. [ ]: non-standard residue; d: D form. The star is where a group is joined. DOTA = O=C(O)CN1CCN(CC(=O)O)CCN(CC(=O)*)CCN(CC(=O)O)CC1; Hyp = O=C(O)[C@@H]1C[C@@H](O)CN1; Cha = N[C@@H](CC1CCCCC1)C(=O)O; PEG2 = NCCOCCOCCC(=O)O

Assays:
[1] = target: T1, B1R (Homo sapiens, UniProt P46663); assay: Competitive binding assay with 3H radioligand on CHO-K1 cell membranes over-expressing human B1R; set-up: purchased Perkin Elmer Inc., Waltham, Mass; ES-091-M400UA; host or cells: CHO-K1 cells over-expressing human B1R (membrane preparation); conditions: for pKi: CHO-K1 membranes, individual assays, read-out: Ki; for Ki: average of individual competitive binding assays, read-out: Affinity Ki (nM) Average
T1 sequence (P46663 1-353): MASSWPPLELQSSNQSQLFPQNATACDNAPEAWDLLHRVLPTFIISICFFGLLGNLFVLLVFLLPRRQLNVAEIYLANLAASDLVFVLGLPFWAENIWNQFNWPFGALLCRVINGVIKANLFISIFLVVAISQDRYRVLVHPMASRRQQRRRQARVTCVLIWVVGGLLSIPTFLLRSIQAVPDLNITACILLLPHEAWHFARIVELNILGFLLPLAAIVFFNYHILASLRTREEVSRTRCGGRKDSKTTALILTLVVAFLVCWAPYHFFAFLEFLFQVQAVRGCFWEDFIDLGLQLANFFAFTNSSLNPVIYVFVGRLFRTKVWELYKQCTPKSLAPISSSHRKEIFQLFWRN
Description: The ability of the peptide and small molecule B1R targeting compounds to bind to B1R was assessed in competitive binding assay as described below.
Preparation of Cell Membranes: Ready to use cell membranes (12.5 μg/μL) from CHO-K1 cells over-expressing human B1R were obtained from Perkin Elmer Inc., Waltham, Mass. (cat. no. ES-091-M400UA). Binding using cell membranes from HEK293T::GFP::hB1R (from Example 3) was also tested. In the latter case, the membranes were prepared as follows: 90% confluent cells grown in large flask, T225, were detached and pelleted in a 50 mL conical tube using centrifuge at 1,200 rpm for 5 minutes. Afterward, cells were re-suspended in 20-30 mL of cold 50 mM Tris-HCl pH 7.4. Ice cold cells were disrupted for 15 seconds at 15,000 rpm with a Polytron PT3100 (Kinematica AG, Lucerne, Switzerland). The solution was aliquoted and centrifuged at 4° C. at 17,000×g for 30 minutes. The supernatant was discarded, and then the pellet was dissolved in 1-2 mL of cold salt solution containing 50 mM Tris-HCl pH 7.4 and 100 mM NaCl and incubated for 1 hour on ice. The cell membranes were pelleted by centrifugation at 4° C. at 17,000×g for 30 minutes and resuspended in 200-600 μL of 50 mM Tris-HCl pH 7.4. The cell membrane extract was stored at −80° C. Protein concentration was determined by Bradford assay (cat. no. R1271, Fermentas, Thermo Fisher Scientific, Burlington, ON). 50 ug of cell membranes per well was used for the competitive binding assay. […] Radio-labelled control was H-3 labelled [Leu^9,des-Arg^10] kallidin obtained either from American Radiolabelled Chemicals Inc, St. Louis, Mo.
Competitive Binding Assays: Assays were performed using 96-well MultiScreenHTS with glass fiber filter and PVDF support obtained from Millipore Corp, Billerica, Mass. (cat. no. MSFB N6B, lot no. R8AN42424). Wells of the MultiScreen plate were pre-soaked with 0.5% of cold Poly(ethyleneimine) (PEI) (cat. no. P3143, Sigma-Aldrich, St. Louis, Mo.) for 30 minutes. Afterward, wells were washed once with 50 mM of Tris-HCl pH 7.4. Total volume per wells was 200 μL. A fixed concentration of the hot radioligand (1, 3, 5 or 12.5 nM depending on the radioligand; see Table 5) was incubated with progressively higher concentrations (10^−11 to 10^−4 M) of the non-radioactive competitor of interest in the presence of cell membranes (50 μg/well) and the assay buffer (50 mM Tris-HCl pH 7.4, 5 mM MgCl2). The MultiScreen plate was then incubated at 27° C. for 15 minutes with agitation at 300 rpm. The assay was stopped by suctioning the reaction solution through the bottom PVDF membrane filter and discarded. The membranes were washed 7× with 150 μL/well of cold 50 mM Tris-HCl pH 7.4. Radioactivity was counted using 1450 MicroBeta TriLux—Microplate Scintillation and Luminescence Counter (Perkin Elmer Inc., Shelton, Conn.).

[2] = in vivo; conditions: NODSCID IL2RKO, mouse, iv, total radioactivity
Description: Tumour Implantation: Imaging and biodistribution experiments were performed using NODSCID IL2RKO mice. Each cage, equipped with enrichments, contained three or four mice. The mice were maintained and the experiments were conducted in accordance with the guidelines established by Canadian Council on Animal Care and approved by Animal Ethics Committee of the University of British Columbia. Mice were housed under pathogen-free conditions and kept on twelve hour light and twelve hour dark cycle in the Animal Research Centre, British Columbia Cancer Research Centre, Vancouver, Canada.
Mice were anesthetised briefly with 2.5% isoflurane in 2.0 L/min of oxygen during cell implantation. After wiping the skin surrounding the injection site with an alcohol prep pad, a 31-Gauge needle was used to inject 10^7 HEK293T::GFP and HEK293T::hB1R cells in matrigel (1:1) on the back of the mouse. Imaging was performed once the tumour lump was visible. Tumour size was measured by CT and calculated using the ellipsoid formula: V^3mm=width×length×thickness×0.524.
PET/CT Imaging: Each tumour-bearing mouse was injected with ˜3.7 MBq of Ga-68 labelled Peptide 3 through the tail vein. The mice were imaged using the BC Cancer Agency Inveon microPET/CT scanner that has a 1.3 mm spatial resolution and a high sensitivity. Briefly, a localization CT scan was first obtained using 3 overlapping positions to cover the entire mouse. This CT scan was used for attenuation and scatter correction after segmentation for reconstructing the PET images. A dynamic acquisition was then performed for 60 minutes, with the mouse under isoflurane sedation. The animals were kept warm by a monitoring system with an integrated heating pad and physiological acquisition system. At the end of the acquisition, the mice were euthanized, and major organs were collected, weighed, and counted to determine the % injected dose per gram of tissue (% ID/g). The images were reconstructed using OSEM/3DMAP iterative reconstruction, and representative images of Ga-68 labelled Peptide 3 at 1 h post-injection are shown in FIG. 4.

[3] = system: HEK-293 and HEK-293/BKRB1 tumours; assay: Biodistribution of Ga-68 Peptide 12 in tumour-bearing mice; type: in vivo, mouse; set-up: Biodistribution Spleen Average / Biodistribution Liver Average / Biodistribution Adrenal glands Average / Biodistribution Kidney Average / Biodistribution Muscle Average / Biodistribution Brain Average / Biodistribution Blood Average / Biodistribution Fat Average: unit not given here; conditions: 1 h post-injection
Text: Peptide 12 is an […] version of Peptide 3 that was developed by substituting the C-terminal Leu residue with a D-Phe residue.

In the case of `Cc1ccc(S(=O)(=O)N2c3ccccc3NC(=O)[C@H]2CC(=O)NCc2ccc(NCCF)cc2)cc1` [Compound 8], the pKi ([1]; Hot 12.5 nM BK-AG-ARC) was 5.16 and the Ki [1] was 6920 nM.
For `COc1cc(C)c(S(=O)(=O)N(C)CCOCC(=O)N2CCC(C3CCN(CCF)CC3)CC2)c(C)c1` [Compound 15], the pKi ([1]; Hot 4.5 nM BK-ANT-ARC) was 9.09 and the Ki [1] was 0.81 nM.
`Cc1ccc(S(=O)(=O)N2c3ccccc3NC(=O)[C@H]2CC(=O)NCCc2ccc(NCCF)cc2)cc1` [Compound 6] gave a pKi ([1]; Hot 12.5 nM BK-AG-ARC) of 6.00 and a Ki [1] of 1010 nM.
`CC(C)C[C@H](NC(=O)[C@@H]1CCCN1C(=O)[C@H](CO)NC(=O)[C@H](CC1CCCCC1)NC(=O)CNC(=O)[C@@H]1C[C@@H](O)CN1C(=O)[C@@H]1CCCN1C(=O)[C@H](CCCNC(=N)N)NC(=O)[C@H](CCCCN)NC(=O)CCOCCOCCNC(=O)CN1CCN(CC(=O)O)CCN(CC(=O)O)CCN(CC(=O)O)CC1)C(=O)O` [Ga-68 Peptide 3, ^68Ga-DOTA-PEG2-Lys-Arg-Pro-Hyp-Gly-Cha-Ser-Pro-Leu, metal not drawn] ({DOTA-PEG2}-KRP[Hyp]G[Cha]SPL-OH) showed a tissue uptake at 1 h ([2]; 3.7 MBq, % ID/g Blood Average) of 0.26 %ID/g, a tissue uptake at 1 h ([2]; 3.7 MBq, % ID/g Bone Average) of 0.34 %ID/g and a tissue uptake at 1 h ([2]; 3.7 MBq, % ID/g Brain Average) of 0.03 %ID/g. It also gave a tissue uptake at 1 h ([2]; 3.7 MBq, % ID/g Colon Average) of 0.34 %ID/g, a tissue uptake at 1 h ([2]; 3.7 MBq, % ID/g Fat Average) of 0.12 %ID/g and a tissue uptake at 1 h ([2]; 3.7 MBq, % ID/g Heart Average) of 0.19 %ID/g. The tissue uptake at 1 h ([2]; 3.7 MBq, % ID/g LEFT Tumour (B1R) Average) was 1.32 %ID/g, the tissue uptake at 1 h ([2]; 3.7 MBq, % ID/g Left Kidney Average) was 5.14 %ID/g and the tissue uptake at 1 h ([2]; 3.7 MBq, % ID/g Liver Average) was 0.16 %ID/g. The tissue uptake at 1 h ([2]; 3.7 MBq, % ID/g Lungs Average) was 0.43 %ID/g, the tissue uptake at 1 h ([2]; 3.7 MBq, % ID/g Muscle Average) was 0.11 %ID/g and the tissue uptake at 1 h ([2]; 3.7 MBq, % ID/g Pancreas Average) was 0.13 %ID/g. For the same compound, the tissue uptake at 1 h ([2]; 3.7 MBq, % ID/g Plasma Average) was 0.77 %ID/g, the tissue uptake at 1 h ([2]; 3.7 MBq, % ID/g RIGHT Tumour (GFP) Average) was 0.23 %ID/g and the tissue uptake at 1 h ([2]; 3.7 MBq, % ID/g Right Kidney Average) was 6.79 %ID/g. The tissue uptake at 1 h ([2]; 3.7 MBq, % ID/g Small Intestine Average) was 0.2 %ID/g, the tissue uptake at 1 h ([2]; 3.7 MBq, % ID/g Spleen Average) was 0.11 %ID/g and the tissue uptake at 1 h ([2]; 3.7 MBq, % ID/g Stomach Average) was 0.11 %ID/g. The tissue uptake at 1 h ([2]; % ID/g Tail Average) was 0.45 %ID/g.
In the case of `N=C(N)NCCC[C@H](NC(=O)[C@H](CCCCN)NC(=O)CCCCCNC(=O)CN1CCN(CC(=O)O)CCN(CC(=O)O)CCN(CC(=O)O)CC1)C(=O)N1CCC[C@H]1C(=O)N1C[C@H](O)C[C@H]1C(=O)NCC(=O)N[C@@H](CC1CCCCC1)C(=O)N[C@@H](CO)C(=O)N1CCC[C@H]1C(=O)N[C@H](Cc1ccccc1)C(=O)O` [Ga-68 Peptide 12, ^68Ga-DOTA-Ahx-Lys-Arg-Pro-Hyp-Gly-Cha-Ser-Pro-(D-Phe), metal not drawn], the “Biodistribution Adrenal glands Average” value ([3]; Adrenal glands) was 0.001, the “Biodistribution Blood Average” value ([3]; Blood) was 0.039 and the Biodistribution Bone Average ([3]; Bone) was 0.093 %ID/g. The “Biodistribution Brain Average” value ([3]; Brain) was 0.009, the “Biodistribution Fat Average” value ([3]; Fat) was 0.039 and the Biodistribution Heart Average ([3]; Heart) was 0.15 %ID/g. The “Biodistribution Kidney Average” value ([3]; Kidney) was 6.436, the Biodistribution Large intestine Average ([3]; Large intestine) was 0.149 %ID/g and the Biodistribution Left tumour Average ([3]; Left tumour) was 0.194 %ID/g. For the same compound, the “Biodistribution Liver Average” value ([3]; Liver) was 0.129, the Biodistribution Lungs Average ([3]; Lungs) was 0.8 %ID/g and the “Biodistribution Muscle Average” value ([3]; Muscle) was 0.056. The “Biodistribution Pancreas Average” value ([3]; Pancreas) was 0.069, the Biodistribution Plasma Average ([3]; Plasma) was 0.473 %ID/g and the “Biodistribution Right tumour Average” value ([3]; Right tumour, in %ID/g) was 7.909. It also gave a Biodistribution Seminal glands Average ([3]; Seminal glands) of 0.23 %ID/g, a Biodistribution Skin Average ([3]; Skin) of 0.223 %ID/g and a Biodistribution Small intestine Average ([3]; Small intestine) of 0.208 %ID/g. The “Biodistribution Spleen Average” value ([3]; Spleen) was 0.127, the Biodistribution Tail Average ([3]; Tail) was 0.226 %ID/g and the Biodistribution Testes Average ([3]; Testes) was 0.132 %ID/g.
In the case of `Cc1ccc(S(=O)(=O)N2c3ccccc3NC(=O)[C@H]2CC(=O)Nc2ccc(N3CCN(CCF)CC3)cc2)cc1` [Compound 7], the pKi ([1]; Hot 12.5 nM BK-AG-ARC) was 6.95 and 7.40 and 6.59, the pKi ([1]; Hot 12.5 nM BK-ANT-ARC) was 7.68 and the Ki [1] was 108 nM.
